Laboratory results from patent US7595401B2, “Therapeutic compounds and their use in cancer” (Myriad Pharmaceuticals, Inc., priority 2006, dated 2009).

Tested on: purified human Hsp90
Assay: Binding Assay: fluorescence polarization with BODIPY-labeled geldanamycin
Conditions: 5 μM compound, BODIPY-GM 10 nM, Hsp90 30 nM
Method in brief: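 Compounds in 2% DMSO final compete with 10 nM BODIPY-GM for 30 nM purified human Hsp90, incubated overnight at room temperature in pH 7.3 HEPES buffer containing Na2MoO4 and DTT. Polarization (mP, ex/em 485/530) normalized to DMSO gives percent inhibition; autofluorescence-confounded data excluded.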

`COc1cc(Br)c(Sc2nc3c(N)ncn(CCC4CCN(C(C)=O)CC4)c-3n2)cc1OC` [Example 566, 3-[2-(1-Acetylpiperidin-4-yl)ethyl]-8-[(2-bromo-4,5-dimethoxyphenyl)thio]-3 H-purin-6-amine] was tested. Which “% Inhibition at 5 μM Compound Concentration” value (“% Inhibition” below) did it give?
Its value is 1.00%.

For `COc1ccc(Sc2nc3c(N)ncn(CCC4CCN(C(C)=O)CC4)c-3n2)cc1F` [Example 568, 3-[2-(1-Acetylpiperidin-4-yl)ethyl]-8-[(3-fluoro-4-methoxyphenyl)thio]-3 H-purin-6-amine], which “% Inhibition” value is on record?
Its value is 0.00%.

With `COc1c(F)cc(Sc2nc3c(N)ncn(CCC4CCN(C(C)=O)CC4)c-3n2)cc1Cl` [Example 570, 3-[2-(1-Acetylpiperidin-4-yl)ethyl]-8-[(3-chloro-5-fluoro-4-methoxyphenyl)thio]-3 H-purin-6-amine] as the compound, how does the “% Inhibition” value read?
Its value is 0.00%.

`CC(=O)N1CCC(CCn2cnc(N)c3nc(Sc4ccc5c(c4)OC(F)(F)O5)nc2-3)CC1` [Example 572, 3-[2-(1-Acetylpiperidin-4-yl)ethyl]-8-[(2,2-difluoro-1,3-benzodioxol-5-yl)thio]-3 H-purin-6-amine] was tested. Which “% Inhibition” value did it give?
The value was 0.00%.

How did the “% Inhibition” value turn out when `N#CC1CCN(CCn2c(Sc3cc4c(cc3Br)OCO4)nc3ncnc(N)c32)CC1` [Example 576, 1-(2-{6-Amino-8-[(6-bromo-1,3-benzodioxol-5-yl)thio]-7 H-purin-7-yl}ethyl)piperidine-4 - carbonitrile] was run?
Its value is 31%.

Which “% Inhibition” value does the source give for `CC(C)N1CCC(CCn2c(Sc3cc4c(cc3Br)OCO4)nc3ncnc(N)c32)CC1` [Example 583, 8-[(6-Bromo-1,3-benzodioxol-5-yl)thio]-7-[2-(1-isopropylpiperidin-4-yl)ethyl]-7 H-purin-6-amine] here?
The value was 55.00%.

For `COc1ccc(CN2CCC(CCn3cnc(N)c4nc(Sc5cc6c(cc5Br)OCO6)nc3-4)CC2)cc1` [Example 595, 8-[(6-Bromo-1,3-benzodioxol-5-yl)thio]-3-{2-[1-(4-methoxybenzyl)piperidin-4-yl]ethyl}-3 H-purin-6-amine], which “% Inhibition” value is on record?
Its value is 43.00%.

`Nc1ncn(CCC2CCN(C=O)CC2)c2nc(Sc3cc4c(cc3Br)OCO4)nc1-2` [Example 602, 4-(2-{6-Amino-8-[(6-bromo-1,3-benzodioxol-5-yl)thio]-3 H-purin-3-yl}ethyl)piperidine-1-carbaldehyde] was tested. Which “% Inhibition” value did it give?
The value was 31.00%.

Same assay, conditions: BODIPY-GM 10 nM, Hsp90 30 nM

With `COc1ccc(OC)c(Sc2nc3c(N)ncnc3n2CCC2CCN(C(C)=O)CC2)c1` [Example 557, 9-[2-(1-Acetylpiperidin-4-yl)ethyl]-8-[(2,5-dimethoxyphenyl)thio]-9 H-purin-6-amine] as the compound, how does the IC50 read?
The IC50 was 1500 nM.

Which IC50 does the source give for `COc1cc(Sc2nc3c(N)ncnc3n2CCC2CCN(C=O)CC2)c(OC)cc1Cl` [Example 558, 4-(2-{6-Amino-8-[(4-chloro-2,5-dimethoxyphenyl)thio]-9 H-purin-9-yl}ethyl)piperidine-1-carbaldehyde] here?
Its IC50 is > 5000 nM.

Which IC50 does the source give for `COc1cc(F)c(Sc2nc3c(N)ncnc3n2CCC2CCN(C(C)=O)CC2)cc1F` [Example 559, 9-[2-(1-Acetylpiperidin-4-yl)ethyl]-8-[(2,5-difluoro-4-methoxyphenyl)thio]-9 H-purin-6-amine] here?
The IC50 was > 5000 nM.

How did the IC50 turn out when `CC(=O)N1CCC(CCn2c(Sc3cc(F)c(F)cc3Br)nc3c(N)ncnc32)CC1` [Example 560, 9-[2-(1-Acetylpiperidin-4-yl)ethyl]-8-[(2-bromo-4,5-difluorophenyl)thio]-9 H-purin-6-amine] was run?
The IC50 was > 5000 nM.

`CC(=O)N1CCC(CCn2c(Sc3ccc4c(c3)OCO4)nc3c(N)ncnc32)CC1` [Example 561, 9-[2-(1-Acetylpiperidin-4-yl)ethyl]-8-(1,3-benzodioxol-5-ylthio)-9 H-purin-6-amine] was tested. Which IC50 did it give?
Its IC50 is > 5000 nM.

With `COc1cc(Sc2nc3c(N)ncnc3n2CCC2CCN(C(C)=O)CC2)c(OC)cc1Cl` [Example 563, 9-[2-(1-Acetylpiperidin-4-yl)ethyl]-8-[(4-cloro-2,5-dimethoxyphenyl)thio]-9 H-purin-6-amine] as the compound, how does the IC50 read?
Its IC50 is > 5000 nM.

With `COc1cc(Br)c(Sc2nc3c(N)ncnc3n2CCC2CCN(C(C)=O)CC2)cc1OC` [Example 565, 9-[2-(1-Acetylpiperidin-4-yl)ethyl]-8-[(2-bromo-4,5-dimethoxyphenyl)thio]-9 H-purin-6-] as the compound, how does the IC50 read?
The IC50 was > 5000 nM.

`COc1ccc(Sc2nc3c(N)ncnc3n2CCC2CCN(C(C)=O)CC2)cc1F` [Example 567, 9-[2-(1-Acetylpiperidin-4-yl)ethyl]-8-[(3-fluoro-4-methoxyphenyl)thio]-9 H-purin-6-amine] was tested. Which IC50 did it give?
Its IC50 is > 5000 nM.

With `COc1c(F)cc(Sc2nc3c(N)ncnc3n2CCC2CCN(C(C)=O)CC2)cc1Cl` [Example 569, 9-[2-(1-Acetylpiperidin-4-yl)ethyl]-8-[(3-chloro-5-fluoro-4-methoxyphenyl)thio]-9 H-purin-6-amine] as the compound, how does the IC50 read?
Its IC50 is > 5000 nM.

For `CC(=O)N1CCC(CCn2c(Sc3ccc4c(c3)OC(F)(F)O4)nc3c(N)ncnc32)CC1` [Example 571, 9-[2-(1-Acetylpiperidin-4-yl)ethyl]-8-[(2,2-difluoro-1,3-benzodioxol-5-yl)thio]-9 H-purin-6-amine], which IC50 is on record?
Its IC50 is > 5000 nM.

`Nc1ncnc2c1nc(Sc1cc3c(cc1Br)OCO3)n2CCC1CCN(Cc2ccc(Cl)cc2)CC1` [Example 573, 8-[(6-Bromo-1,3-benzodioxol-5-yl)thio]-9-{2-[1-(4-chlorobenzyl)piperidin-4-yl]ethyl}-9 H-purin-6-amine] was tested. Which IC50 did it give?
Its IC50 is 1400 nM.

How did the IC50 turn out when `Nc1ncnc2c1nc(Sc1cc3c(cc1Br)OCO3)n2CCNc1cccc2cccnc12` [Example 574, N-(2-{6-Amino-8-[(6-bromo-1,3-benzodioxol-5-yl)thio]-9 H-purin-9-yl}ethyl)quinolin-8-amine] was run?
Its IC50 is 1800 nM.

`N#CC1CCN(CCn2c(Sc3cc4c(cc3Br)OCO4)nc3c(N)ncnc32)CC1` [Example 575, 1-(2-{6-Amino-8-[(6-bromo-1,3-benzodioxol-5-yl)thio]-9 H-purin-9-yl}ethyl)piperidine-4-carbonitrile] was tested. Which IC50 did it give?
Its IC50 is 800 nM.

How did the IC50 turn out when `Nc1ncnc2c1nc(Sc1cc3c(cc1Br)OCO3)n2CCC1CCCN(CC(F)(F)F)C1` (centres unmarked) [Example 577, 8-[(6-Bromo-1,3-benzodioxol-5-yl)thio]-9-{2-[1-(2,2,2-trifluoroethyl)piperidin-3-yl]ethyl}-9 H-purin-6-amine] was run?
The IC50 was 140 nM.

`Cc1cc(=O)n(CCn2c(Sc3cc4c(cc3Br)OCO4)nc3c(N)ncnc32)c(=O)[nH]1` [Example 578, 3-(2-{6-amino-8-[(6-bromo-1,3-benzodioxol-5-yl)thio]-9 H-purin-9-yl}ethyl)-6-methylpyrimidine-2,4 (1 H,3 H)-dione] was tested. Which IC50 did it give?
The IC50 was 550 nM.

How did the IC50 turn out when `Nc1ncnc2c1nc(Sc1cc3c(cc1Br)OCO3)n2CCC1CCN(Cc2ccc(F)cc2)CC1` [Example 579, 8-[(6-Bromo-1,3-benzodioxol-5-yl)thio]-9-{2-[1-(4-fluorobenzyl)piperidin-4-yl]ethyl}-9 H-purin-6-amine] was run?
Its IC50 is 310 nM.

For `Nc1ncnc2c1nc(Sc1cc3c(cc1Br)OCO3)n2CCC1CCN(CC2CCCCC2)CC1` [Example 581, 8-[(6-Bromo-1,3-benzodioxol-5-yl)thio]-9-{2-[1-(cyclohexylmethyl)piperidin-4-yl]ethyl}-9 H-purin-6-amine], which IC50 is on record?
Its IC50 is 240 nM.

`CC(C)N1CCC(CCn2c(Sc3cc4c(cc3Br)OCO4)nc3c(N)ncnc32)CC1` [Example 582, 8-[(6-Bromo-1,3-benzodioxol-5-yl)thio]-9-[2-(1-isopropylpiperidin-4-yl)ethyl]-9 H-purin-6-amine] was tested. Which IC50 did it give?
Its IC50 is 900 nM.

With `Nc1ncnc2c1nc(Sc1cc3c(cc1Br)OCO3)n2CCN1CCCC1=O` [Example 584, 1-(2-{6-Amino-8-[(6-bromo-1,3-benzodioxol-5-yl)thio]-9 H-purin-9-yl}ethyl)pyrrolidin-2-one] as the compound, how does the IC50 read?
The IC50 was 1400 nM.

`Nc1ncnc2c1nc(Sc1cc3c(cc1Br)OCO3)n2CCC1CCN(CC(F)(F)F)CC1` [Example 585, 8-[(6-Bromo-1,3-benzodioxol-5-yl)thio]-9-{2-[1-(2,2,2-trifluoroethyl)piperidin-4-yl]ethyl}-9 H-purin-6-amine] was tested. Which IC50 did it give?
Its IC50 is 600 nM.

With `Nc1ncnc2c1nc(Sc1cc3c(cc1Br)OCO3)n2CCN1CCOC1=O` [Example 586, 3-(2-{6-Amino-8-[(6-bromo-1,3-benzodioxol-5-yl)thio]-9 H-purin-9-yl}ethyl)-1,3-oxazolidin-2-one] as the compound, how does the IC50 read?
The IC50 was 450 nM.

How did the IC50 turn out when `Nc1ncnc2c1nc(Sc1cc3c(cc1Br)OCO3)n2CCC1CCCCN1CC1CCCCC1` (centres unmarked) [Example 588, 8-[(6-Bromo-1,3-benzodioxol-5-yl)thio]-9-{2-[1-(cyclohexylmethyl)piperidin-2-yl]ethyl}-9 H-purin-6-amine] was run?
Its IC50 is > 2000 nM.

How did the IC50 turn out when `COc1ccc(CN2CCCCC2CCn2c(Sc3cc4c(cc3Br)OCO4)nc3c(N)ncnc32)cc1` (centres unmarked) [Example 590, 8-[(6-Bromo-1,3-benzodioxol-5-yl)thio]-9-{2-[1-(4-methoxybenzyl)piperidin-2-yl]ethyl}-9 H-purin-6-amine] was run?
Its IC50 is 500 nM.

`Nc1ncnc2c1nc(Sc1cc3c(cc1Br)OCO3)n2CCC1CCCCN1C(=O)OCc1ccccc1` (centres unmarked) [Example 592, Benzyl 2-(2-{6-amino-8-[(6-bromo-1,3-benzodioxol-5-yl)thio]-9 H-purin-9-yl}ethyl)piperidine-1-carboxylate] was tested. Which IC50 did it give?
Its IC50 is > 5000 nM.

`COc1ccc(CN2CCC(CCn3c(Sc4cc5c(cc4Br)OCO5)nc4c(N)ncnc43)CC2)cc1` [Example 594, 8-[(6-Bromo-1,3-benzodioxol-5-yl)thio]-9-{2-[1-(4-methoxybenzyl)piperidin-4-yl]ethyl}-9 H-purin-6-amine] was tested. Which IC50 did it give?
The IC50 was 270 nM.

Which IC50 does the source give for `Nc1ncnc2c1nc(Sc1cc3c(cc1Br)OCO3)n2CCC1CCN(Cc2ccccc2)CC1` [Example 599, 9-[2-(1-Benzylpiperidin-4-yl)ethyl]-8-[(6-bromo-1,3-benzodioxol-5-yl)thio]-9 H-purin-6-amine] here?
Its IC50 is 260 nM.

With `CC1(C)COC(CCn2c(Sc3cc4c(cc3Br)OCO4)nc3c(N)ncnc32)CN1` (centres unmarked) [Example 601, 8-[(6-Bromo-1,3-benzodioxol-5-yl)thio]-9-[2-(5,5-dimethylmorpholin-2-yl)ethyl]-9 H-purin-6-amine] as the compound, how does the IC50 read?
Its IC50 is > 8000 nM.
